Data taken from US9102688B2, “Sulfonaminoquinoline hepcidin antagonists” (Vifor (International) AG, priority 2011, dated 2015).

Each molecule was assayed against T1, human ferroportin (Homo sapiens, UniProt Q9NP59) (assay: ferroportin internalization assay (inhibition of hepcidin-induced internalization of Fpn)). Conditions: MDCK-FPN-HaloTag cells, 100 nM hepcidin, overnight incubation; concentration range from 0.04 to 40 μM.
T1 construct: expressed in transfected cells
T1 sequence (Q9NP59 1-571): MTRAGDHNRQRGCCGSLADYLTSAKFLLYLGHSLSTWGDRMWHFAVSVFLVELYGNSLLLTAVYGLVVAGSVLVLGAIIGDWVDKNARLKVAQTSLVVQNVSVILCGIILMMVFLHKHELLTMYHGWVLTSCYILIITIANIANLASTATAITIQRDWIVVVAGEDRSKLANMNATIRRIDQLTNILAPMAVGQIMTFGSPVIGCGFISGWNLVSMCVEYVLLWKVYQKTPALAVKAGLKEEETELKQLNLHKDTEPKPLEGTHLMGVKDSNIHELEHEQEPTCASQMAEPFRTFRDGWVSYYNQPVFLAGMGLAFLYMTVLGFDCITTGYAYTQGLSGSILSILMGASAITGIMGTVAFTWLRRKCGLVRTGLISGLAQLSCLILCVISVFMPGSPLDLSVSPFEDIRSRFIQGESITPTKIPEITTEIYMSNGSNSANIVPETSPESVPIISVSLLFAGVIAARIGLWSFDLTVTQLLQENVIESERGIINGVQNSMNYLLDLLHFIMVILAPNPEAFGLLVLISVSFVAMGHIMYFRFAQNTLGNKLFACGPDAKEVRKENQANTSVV
Assay type: cell-based
Outline: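 MDCK cells stably expressing human ferroportin–HaloTag were labelled with TMR ligand, then incubated overnight at 37 °C with compound plus 100 nM hepcidin (final). After fixation and nuclear staining, confocal imaging quantified membrane Fpn fluorescence to measure blocking of hepcidin-induced internalization.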

Point of comparison: O=S1(=O)Nc2c(cc(N3CCCCC3)c3cccnc23)-c2ccccc21 [Example 551, 12-Piperidin-1-yl-5H-6-thia-4,5-diaza-chrysene 6,6-dioxide], IC50 1560 nM. Against it:
- O=S1(=O)Nc2c(cc(NCCN3CCOCC3)c3cccnc23)-c2ccccc21 [Example 547, (6,6-Dioxo-5,6-dihydro-6λ*6*-thia-4,5-diaza-chrysen-12-yl)-(2-morpholin-4-yl-ethyl)-amine] — 14-fold higher, 22000 nM
- COCCNc1cc2c(c3ncccc13)NS(=O)(=O)c1ccccc1-2 [Example 548, (6,6-Dioxo-5,6-dihydro-6λ*6*-thia-4,5-diaza-chrysen-12-yl)-(2-methoxy-ethyl)-amine] — 1.8-fold higher, 2830 nM
- O=S1(=O)Nc2c(cc(N3CCOCC3)c3cccnc23)-c2ccccc21 [Example 549, 12-Morpholin-4-yl-5H-6-thia-4,5-diaza-chrysene 6,6-dioxide] — within 1.5-fold, 1140 nM
- CN(C)CCN(C)c1cc2c(c3ncccc13)NS(=O)(=O)c1ccccc1-2 [Example 552, N-(6,6-Dioxo-5,6-dihydro-6λ*6*-thia-4,5-diaza-chrysen-12-yl)-N,N′,N′-trimethyl-ethane-1,2-diamine] — 3.2-fold higher, 5000 nM
- O=S1(=O)Nc2c(cc(N3CCCC3)c3cccnc23)-c2ccccc21 [Example 553, 12-Pyrrolidin-1-yl-5H-6-thia-4,5-diaza-chrysene 6,6-dioxide] — 2.8-fold higher, 4360 nM
- COCCN(C)c1cc2c(c3ncccc13)NS(=O)(=O)c1ccccc1-2 [Example 554, (6,6-Dioxo-5,6-dihydro-6λ*6*-thia-4,5-diaza-chrysen-12-yl)-(2-methoxy-ethyl)-methyl-amine] — 2.8-fold lower, 550 nM
- CN(C)CCOc1cc2c(c3ncccc13)NS(=O)(=O)c1ccccc1-2 [Example 562, [2-(6,6-Dioxo-5,6-dihydro-6λ*6*-thia-4,5-diaza-chrysen-12-yloxy)-ethyl]-dimethyl-amine] — 1.8-fold higher, 2760 nM
- COc1cc2c(c3ncccc13)NS(=O)(=O)c1ccc(C(F)(F)F)cc1-2 [Example 589, 12-Methoxy-9-trifluoromethyl-5H-6-thia-4,5-diaza-chrysene 6,6-dioxide] — 1.6-fold lower, 960 nM
